± gives the expanded uncertainty stated by the source.
Assay: xn = mol fraction of the nth substance listed
Conditions: 293.15 K, Fluid (supercritical or subcritical phases), Vibrating tube method, x1 = 0.97

O=C=O [carbon dioxide] + CO
Conditions | mass density [kg/m3]
7075 kPa | 823.68 ± 0.81
7100 kPa | 824.12 ± 0.81
7125 kPa | 824.56 ± 0.81
7150 kPa | 824.97 ± 0.81
7175 kPa | 825.4 ± 0.81
7200 kPa | 825.75 ± 0.81
7225 kPa | 826.24 ± 0.81
7250 kPa | 826.63 ± 0.81
7275 kPa | 827.05 ± 0.81
7300 kPa | 827.52 ± 0.81
7325 kPa | 827.94 ± 0.81
7350 kPa | 828.35 ± 0.81
7375 kPa | 828.75 ± 0.81
7400 kPa | 829.18 ± 0.81
7425 kPa | 829.57 ± 0.81
7450 kPa | 829.96 ± 0.81
7475 kPa | 830.36 ± 0.81
7500 kPa | 830.75 ± 0.81
7525 kPa | 831.18 ± 0.81
7550 kPa | 831.58 ± 0.81
7575 kPa | 832.01 ± 0.81
7600 kPa | 832.39 ± 0.81
7625 kPa | 832.79 ± 0.81
7650 kPa | 833.16 ± 0.81
7675 kPa | 833.55 ± 0.81
7700 kPa | 833.94 ± 0.81
7725 kPa | 834.35 ± 0.81
7750 kPa | 834.76 ± 0.81
7775 kPa | 835.15 ± 0.81
7800 kPa | 835.53 ± 0.81
7825 kPa | 835.97 ± 0.81
7850 kPa | 836.36 ± 0.81
7875 kPa | 836.75 ± 0.81
7900 kPa | 837.14 ± 0.81
7925 kPa | 837.51 ± 0.81
7950 kPa | 837.87 ± 0.81
7975 kPa | 838.26 ± 0.81
8000 kPa | 838.63 ± 0.81
8025 kPa | 838.99 ± 0.81
8050 kPa | 839.37 ± 0.81
8075 kPa | 839.71 ± 0.81
8100 kPa | 840.15 ± 0.81
8125 kPa | 840.47 ± 0.81
8150 kPa | 840.87 ± 0.81
8175 kPa | 841.23 ± 0.81
8200 kPa | 841.62 ± 0.81
8225 kPa | 841.97 ± 0.81
8250 kPa | 842.39 ± 0.81
8275 kPa | 842.74 ± 0.81
8300 kPa | 843.12 ± 0.81
8325 kPa | 843.46 ± 0.81
8350 kPa | 843.86 ± 0.81
8375 kPa | 844.16 ± 0.81
8400 kPa | 844.56 ± 0.81
8425 kPa | 844.93 ± 0.81
8450 kPa | 845.3 ± 0.81
8475 kPa | 845.64 ± 0.81
8500 kPa | 845.98 ± 0.81
8525 kPa | 846.37 ± 0.81
8550 kPa | 846.75 ± 0.81
8575 kPa | 847.1 ± 0.81
